Source: patent publication US7563781B2, “Triazolopyrimidine derivatives” (Janssen Pharmaceutica NV, priority 2006, dated 2009)
Read-outs that look alike come from different tables or passages of the source.

Key:
[1] = target: T1, CAK complex (human Cdk7, human Cyclin H, MAT-1) (Homo sapiens, UniProt P50613); assay: in vitro time-resolved-fluorescence assay for the CAK kinase activity; assay type: biochemical; conditions: compound 20 uM; for inhibition at 20 µM: read-out: CAK % inhib
T1 construct: made in house; host or cells: SF-900 insect cells co-infected with Flag-Cdk7 and Bab-Cyclin H baculoviruses
Excerpt: Cyclin Dependent Kinase Activating Kinase (CAK) is a complex of proteins that phosphorylates a well-conserved threonine (Thr) residue in all mammalian cyclin dependent kinases (cdks). The CAK complex can also phosphorylate several components of the transcriptional machinery, such as the C-terminal domain (CTD) of RNA polymerase II in the TFIIH transcription complex. The CAK complex localizes to the nucleus, and is composed of three proteins: Cdk7, Cyclin H, and MAT-1. The exemplified method teaches the cloning and expression CAK subunits, particularly a human Cdk7 and a human Cyclin H. The method of the present invention exemplified herein is equally applicable to the cloning and expression of any CAK subunit, such as variants, structural or functional polymorphisms of the human Cdk7 or the human Cyclin H, or their orthologs in other animals such as rat, mouse, pig, dog and monkey.
The CAK complex was purified from co-infected SF-900 insect cells at 48 hours post infection by batch immunoaffinity purification. The infected cells were pelleted by centrifugation and lysed in 1/10 of the culture volume in a solution containing 50 mM Hepes pH 7.5, 10 mM MgCl2, 1 mM DTT, 10 mM Beta-Glycerol phosphate, 20 uM Na-oVO4, 0.2 mM PMSF and 1 μg/mL each of leupeptin, aprotinin, and pepstatin on ice. Cells were mechanically lysed by trituration through a 22-gauge needle followed by sonication or alternately by nitrogen cavitation. The lysed cells were centrifuged at 50,000×G for 1 hour at 4° C. to remove debris and the supernatant was applied to 1/10 volume of prewashed Flag-M2 immunoaffinity resin (Sigma). The CAK complex, by nature of the Flag tagged Cdk7 protein, was allowed to bind to the Flag antibody of the resin overnight at 4° C. with gentle rocking. The resin was washed 4 times with 5 resin volumes of lysis buffer and the bound proteins were eluted by competition with 0.5 mg/mL Flag peptide ([…], American Peptide Co, Inc., SEQ ID NO: 16) in a total of 2 resin volumes. To remove the Flag peptide, the eluted material was applied to PD-10 gel filtration columns (Pharmacia) under conditions recommended by the manufacturer.
Measurement of CAK kinase activity was accomplished using an antibody methodology in which a Europium labeled antibody binds preferentially to serine phosphorylated GST-CTD substrate. The long-lived europium label fluorescence allows a greater signal-to-noise ratio due to the delay in reading the emission wavelength, thereby eliminating signals from immediate fluorescence and fluorescent pharmaceutical screening compounds.
The time-resolved-fluorescence assay for the CAK kinase activity is performed as follows. In a well of a black glutathione coated 96 well micro titer plate (Pierce Chemical, No. 15360), the following reagents were added: 1) 25 ul substrate solution containing 500 ng purified GST-CTD in a buffer having 50 mM Hepes pH 7.5, 10 mM MgCl2, 1 mM DTT, 0.2 mM PMSF, 40 uM Na-oVO4, and 22 uM ATP (as a background control, the buffer, including ATP but not substrate was added); 2) 2.5 ul of screening compounds in a diluent containing 30% DMSO/25 mM Hepes pH7.5 (As a control, the diluent only was added. Typically the final concentration of compound is 1 uM); and 3) 250 ng CAK enzyme complex in enzyme buffer containing 25 ul of 50 mM Hepes pH 7.5, 10 mM MgCl2, 1 mM DTT, 0.2 mM PMSF, and 40 uM Na-oVO4. The micro titer plate was shaken for 2 minutes on a titer plate shaker and allowed to incubate at 30° C. for 20 minutes.
Subsequently, Kinase Stop Solution (75 mM EDTA, 0.2 mM PMSF, 1 mM DTT, 120 uM Na oVO4 in PBS) was added (50 ul/well). The plate was shaken for 2 minutes and incubated overnight at room temperature to allow substrate binding to the wells. The plate contents were flicked out, and the wells of the plate were washed 4 times with 350 ul of wash buffer (Delphia wash buffer, Perkin-Elmer, Inc.). The plate was tapped dry. […]

[2] = target: T2, Focal Adhesion Kinase (full-length Flag-tagged human FAK) (Homo sapiens, UniProt Q05397); assay: in vitro FAK ELISA kinase assay; assay type: biochemical; conditions: for inhibition at 10 µM: read-out: FAK % Inhib ave: 10 uM
T2 construct: a purified recombinant full-length Flag-tagged human FAK protein; Flag; made in house; host or cells: baculovirus infected insect cells
Method: Compound effects on the tyrosine kinase activity of Focal Adhesion Kinase were assessed with an in vitro FAK ELISA kinase assay. This assay measures the incorporation of phosphate from ATP into a FAK substrate protein using an antibody specific for phospho-tyrosine.
500 ng of FAKsubstrate, a purified recombinant fusion protein of GST and a 73 amino acid region surrounding the Tyr397 human FAK autophosphorylation site, was coated in a high-protein binding polystyrene 96 well plate overnight in a buffer containing 50 mM Hepes, pH 7.5, 150 mM NaCl, 0.1 mM Na-oVO4, 0.1 mM NaF and 1 protease inhibitor tablet/10 mL (Complete Mini-EDTA-free, Roche). The next day this solution was removed and the wells were incubated with 0.2% BSA in 50 mM Hepes, pH 7.5, 150 mM NaCl, 0.2 mM PMSF for 1 hour at 30° C. to block unoccupied protein binding sites. The wells were then washed with 50 mM Hepes, pH 7.5, 150 mM NaCl, 0.1% Tween 20. The kinase reaction was performed with 25 ng/well of FAK enzyme (a purified recombinant full-length Flag-tagged human FAK protein made in baculovirus infected insect cells) in 0.1 mL of a buffer containing 25 mM Hepes, pH 7.5, 5 mM MgCl2, 0.5 mM MnCl2, 10 uM NaoVO4, 0.2 mM PMSF. Compounds were added from 30% DMSO stock solutions for a screening concentration of 10 uM or IC50 determinations from 50 uM in half-log dilutions. The reaction is initiated with addition of ATP to a final concentration of 2 uM and incubated at 30° C. for 1 hour. Following the kinase reaction step, the wells were washed and incubated with 50 ng of Horseradish Peroxidase conjugated anti-phosphotyrosine antibody (PT-66 HRP, Sigma) in 0.1 mL wash buffer for 1 hour at 30° C. Wells were then washed and 0.1 mL HRP substrate, Tetra-methyl Benzidine (Sigma) was added and the color reaction allowed to proceed for 2-3 minutes followed by the addition of 0.1 mL of 1N H2SO4 to stop the HRP reaction. Percent inhibition of FAK kinase activity was calculated by comparing compound containing wells to wells treated with diluent only. Background was subtracted from all wells and was defined as the activity of FAK using 500 ng/well of BSA as a substrate. IC50 values were obtained using Prism data analysis software.

T1 sequence (P50613 with tags, fused parts or gaps): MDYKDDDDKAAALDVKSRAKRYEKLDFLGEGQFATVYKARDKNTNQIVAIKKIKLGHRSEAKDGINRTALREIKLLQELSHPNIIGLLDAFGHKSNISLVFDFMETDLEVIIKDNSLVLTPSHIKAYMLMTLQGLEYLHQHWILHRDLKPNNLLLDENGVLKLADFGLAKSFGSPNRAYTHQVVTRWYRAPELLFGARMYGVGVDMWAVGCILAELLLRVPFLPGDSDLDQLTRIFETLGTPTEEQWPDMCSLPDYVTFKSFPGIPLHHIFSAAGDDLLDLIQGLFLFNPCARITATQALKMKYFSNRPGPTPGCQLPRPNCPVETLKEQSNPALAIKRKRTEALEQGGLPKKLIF
T1 sequence (as listed by the source partner): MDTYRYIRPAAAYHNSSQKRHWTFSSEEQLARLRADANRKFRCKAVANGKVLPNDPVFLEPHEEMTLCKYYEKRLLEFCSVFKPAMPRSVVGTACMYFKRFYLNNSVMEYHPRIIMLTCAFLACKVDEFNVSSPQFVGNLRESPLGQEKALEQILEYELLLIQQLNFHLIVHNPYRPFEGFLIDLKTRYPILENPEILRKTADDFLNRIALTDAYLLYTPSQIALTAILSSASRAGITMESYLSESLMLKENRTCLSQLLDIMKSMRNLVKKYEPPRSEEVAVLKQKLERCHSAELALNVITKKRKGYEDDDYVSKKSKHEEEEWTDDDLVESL
T2 sequence (Q05397 whole entry): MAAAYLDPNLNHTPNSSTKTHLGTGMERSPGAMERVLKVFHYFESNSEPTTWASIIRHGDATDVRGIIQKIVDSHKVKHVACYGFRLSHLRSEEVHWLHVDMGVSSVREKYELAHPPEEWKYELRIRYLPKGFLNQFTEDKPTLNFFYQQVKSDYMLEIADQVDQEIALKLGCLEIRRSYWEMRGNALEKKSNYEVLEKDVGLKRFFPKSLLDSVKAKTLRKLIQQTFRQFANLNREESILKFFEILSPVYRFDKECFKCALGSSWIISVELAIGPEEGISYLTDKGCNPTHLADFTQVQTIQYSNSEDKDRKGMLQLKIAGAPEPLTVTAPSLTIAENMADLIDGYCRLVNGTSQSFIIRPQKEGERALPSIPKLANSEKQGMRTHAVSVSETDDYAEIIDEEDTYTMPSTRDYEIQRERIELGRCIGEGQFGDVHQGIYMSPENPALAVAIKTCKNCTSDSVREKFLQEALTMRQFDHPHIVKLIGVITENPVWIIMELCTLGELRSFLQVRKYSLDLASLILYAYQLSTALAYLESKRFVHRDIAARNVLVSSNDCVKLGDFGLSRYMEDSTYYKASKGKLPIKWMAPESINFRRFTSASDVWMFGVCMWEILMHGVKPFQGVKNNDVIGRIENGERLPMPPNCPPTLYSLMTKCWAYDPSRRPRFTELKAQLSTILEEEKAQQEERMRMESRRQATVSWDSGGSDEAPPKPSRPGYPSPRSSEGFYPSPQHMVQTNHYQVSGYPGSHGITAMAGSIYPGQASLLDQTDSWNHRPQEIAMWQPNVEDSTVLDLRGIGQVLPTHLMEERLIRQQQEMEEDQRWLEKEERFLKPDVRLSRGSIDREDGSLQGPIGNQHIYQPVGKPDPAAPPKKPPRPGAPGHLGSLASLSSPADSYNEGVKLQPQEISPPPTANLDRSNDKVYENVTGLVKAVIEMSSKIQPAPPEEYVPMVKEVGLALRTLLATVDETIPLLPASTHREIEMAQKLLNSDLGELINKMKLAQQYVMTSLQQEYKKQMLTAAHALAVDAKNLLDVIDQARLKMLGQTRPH

| SMILES | inhibition at 20 µM [1] [%] | inhibition at 10 µM ([2]; compound 10 uM, ATP 2 uM) [%] | inhibition at 10 µM [2] [%] | CAK % inhib; 20 uM [1] [%] | FAK % Inhib ave: 10 uM ([2]; compound 10 uM, ATP 2 uM) [%] |
| --- | --- | --- | --- | --- | --- |
| CN(Cc1ccccc1Nc1ncc2nnn(-c3ccc4c(c3)CCC4)c2n1)C1CCCCC1 [Compound 18, {2-[(Cyclohexyl-methyl-amino)-methyl]-phenyl}-(3-indan-5-yl-3H-[1,2,3]triazolo[4,5-d]pyrimidin-5-yl)-amine] | 20.7 | 12.2 |  |  |  |
| CCN(CC)CCNC(=O)c1ccc(-n2nnc3cnc(Nc4ccc5c(c4)CCC5)nc32)cc1 [Compound 19, N-(2-Diethylamino-ethyl)-4-[5-(indan-5-ylamino)-[1,2,3]triazolo[4,5-d]pyrimidin-3-yl]-benzamide] | -63.7 | 68.8 |  |  |  |
| CN(Cc1ccccc1-n1nnc2cnc(Nc3ccc4c(c3)CCC4)nc21)C1CCCCC1 [Compound 20, (3-{2-[(Cyclohexyl-methyl-amino)-methyl]-phenyl}-3H-[1,2,3]triazolo[4,5-d]pyrimidin-5-yl)-indan-5-yl-amine] | 12.5 | 13 |  |  |  |
| CN(Cc1ccccc1Nc1ncc2nnn(-c3ccccc3CN(C)C3CCCCC3)c2n1)C1CCCCC1 [Compound 21, {2-[(Cyclohexyl-methyl-amino)-methyl]-phenyl}-(3-{2-[(cyclohexyl-methyl-amino)-methyl]-phenyl}-3H-[1,2,3]triazolo[4,5-d]pyrimidin-5-yl)-amine] | 23.3 | 19 |  |  |  |
| CCN(CC)CCNC(=O)c1ccc(Nc2ncc3nnn(-c4ccc5c(c4)CCC5)c3n2)cc1 [Compound 22, N-(2-Diethylamino-ethyl)-4-(3-indan-5-yl-3H-[1,2,3]triazolo[4,5-d]pyrimidin-5-ylamino)-benzamide] | 96.9 | 98.9 |  |  |  |
| c1ccc(-c2cccc(Nc3ncc4nnn(-c5ccc6c(c5)CCC6)c4n3)c2)cc1 [Compound 23, Biphenyl-3-yl-(3-indan-5-yl-3H-[1,2,3]triazolo[4,5-d]pyrimidin-5-yl)-amine] | 43.5 | 13 |  |  |  |
| CCOP(=O)(Cc1ccc(Nc2ncc3nnn(-c4ccc5c(c4)CCC5)c3n2)cc1)OCC [Compound 24, [4-(3-Indan-5-yl-3H-[1,2,3]triazolo[4,5-d]pyrimidin-5-ylamino)-benzyl]-phosphonic acid diethyl ester] | 24.7 |  | 34 |  |  |
| CCOC(=O)Cc1ccc(Nc2ncc3nnn(-c4ccc5c(c4)CCC5)c3n2)cc1 [Compound 25, [4-(3-Indan-5-yl-3H-[1,2,3]triazolo[4,5-d]pyrimidin-5-ylamino)-phenyl]-acetic acid ethyl ester] | 21 | 30 |  |  |  |
| CCOC(=O)c1cccc(Nc2ncc3nnn(-c4ccc5c(c4)CCC5)c3n2)c1 [Compound 26, 3-(3-Indan-5-yl-3H-[1,2,3]triazolo[4,5-d]pyrimidin-5-ylamino)-benzoic acid ethyl ester] | 25.9 | 13 |  |  |  |
| CNC(=O)c1cccc(Nc2ncc3nnn(-c4ccc5c(c4)CCC5)c3n2)c1 [Compound 27, 3-(3-Indan-5-yl-3H-[1,2,3]triazolo[4,5-d]pyrimidin-5-ylamino)-N-methyl-benzamide] | 21.4 | 74.4 |  |  |  |
| CCOC(=O)/C=C/c1ccc(Nc2ncc3nnn(-c4ccc5c(c4)CCC5)c3n2)cc1 [Compound 28, 3-[4-(3-Indan-5-yl-3H-[1,2,3]triazolo[4,5-d]pyrimidin-5-ylamino)-phenyl]-acrylic acid ethyl ester] | 54.7 | 16 |  |  |  |
| c1cc(-c2csnn2)ccc1Nc1ncc2nnn(-c3ccc4c(c3)CCC4)c2n1 [Compound 29, (3-Indan-5-yl-3H-[1,2,3]triazolo[4,5-d]pyrimidin-5-yl)-(4-[1,2,3]thiadiazol-4-yl-phenyl)-amine] | 16.3 | 11 |  |  |  |
| CN(C)CC(O)COc1ccc(Nc2ncc3nnn(C4CCC(C(=O)O)CC4)c3n2)cc1 (stereo not shown) [Compound 30, 4-{5-[4-(3-Dimethylamino-2-hydroxy-propoxy)-phenylamino]-[1,2,3]triazolo[4,5-d]pyrimidin-3-yl}-cyclohexane-carboxylic acid] | 38.6 | 30 |  |  |  |
| CN(C)CC(O)COc1ccc(Nc2ncc3nnn(C4CCCC(C(=O)O)C4)c3n2)cc1 (stereo not shown) [Compound 31, 3-{5-[4-(3-Dimethylamino-2-hydroxy-propoxy)-phenylamino]-[1,2,3]triazolo[4,5-d]pyrimidin-3-yl}-cyclohexanecar-boxylic acid] | 32.9 | 21.4 |  |  |  |
| CCN(CC)CCOC(=O)c1ccc(Nc2ncc3nnn(-c4ccc5c(c4)CCC5)c3n2)cc1 [Compound 32, 4-(3-Indan-5-yl-3H-[1,2,3]triazolo[4,5-d]pyrimidin-5-ylamino)-benzoic acid 2-diethylamino-ethyl ester] | 42 | 30.2 |  |  |  |
| CCN(CC)CCOC(=O)c1ccc(Nc2ncc3nnn(-c4ccc5c(c4)CCC5)c3n2)cc1 [Compound 33, 4-(3-Indan-5-yl-3H-[1,2,3]triazolo[4,5-d]pyrimidin-5-ylamino)-benzoic acid 2-diethylamino-ethyl ester] |  |  |  | 42.00 | 28.57 |
| CCCCNS(=O)(=O)c1cccc(-n2nnc3cnc(Nc4cc(OC)c(OC)c(OC)c4)nc32)c1 [Compound 34, N-Butyl-3-[5-(3,4,5-trimethoxy-phenylamino)-[1,2,3]triazolo[4,5-d]pyrimidin-3-yl]-benzene-sulfonamide] | 19 | 25 |  |  |  |
